Tests used:
Type in all cases: cell-based, human
Settings in all cases: 72 h
CCRF-CEM = assay: Cytotoxicity (XTT) on CCRF-CEM cells
Protocol: (§1) The cytotoxicity of the substances was measured on four tumour cell lines: CCRF-CEM, HepG2, Hela, HL-60. All cell lines were purchased from ATCC (Manassas, VA, USA). Cells were cultured in RPMI-1640 or DMEM medium containing 10% (wt/wt) FBS and 1% (wt/wt) GlutaMax. Cells were distributed at 2,000-10,000 per well of a 384-well plate (Thermo Fisher Scientific, Waltham, USA) and incubated overnight. After 24 hours, test substance solutions (10 or 100 μmol·l^−1) were added to the wells and the cells were incubated with the test substances at 37° C. and 5% (vol./vol.) CO2 for another 72 h. XTT dye (XTT cell proliferation kit II, Roche Diagnostics GmbH, Mannheim, Germany) was added to the wells according to the manufacturer's protocol. After one hour of incubation with the dye, the absorbance at 495 nm was measured and the signal was compared with the control (100% viability=cells without test substance).

HepG2 = assay: Cytotoxicity (XTT) on HepG2 cells
Protocol: as §1

Hela = assay: Cytotoxicity (XTT) on Hela cells
Protocol: as §1

HL-60 = assay: Cytotoxicity (XTT) on HL-60 cells
Protocol: as §1

SMILES | Cell viability CEM 10 μM (CCRF-CEM) | Cell viability CEM 100 μM (CCRF-CEM) | Cell viability HepG2 10 μM (HepG2) | Cell viability HepG2 100 μM (HepG2) | Cell viability HeLa S3 10 μM (Hela) | Cell viability HeLa S3 100 μM (Hela) | Cell viability HL60 10 μM (HL-60) | Cell viability HL60 100 μM (HL-60)
COC(=O)C(C)NC(=O)C(=O)[C@@H]1CCCN1C(=O)CNC(=O)c1ccnc2ccccc12 (mixture of isomers) [Compound 3m, Methyl (2-oxo-2-((S)-1-((quinoline-4-carbonyl)glycyl)pyrrolidin-2-yl)acetyl)alaninate] | 97 % vs. control | 120 % vs. control | 91 % vs. control | 105 % vs. control | 108 % vs. control | 104 % vs. control | 102 % vs. control | 124 % vs. control
CC(C)NC(=O)C(=O)[C@@H]1CCCN1C(=O)CNC(=O)c1ccnc2ccccc12 [Compound 3i, (S)—N-(2-(2-(2-(Isopropylamino)-2-oxoacetyl)pyrrolidin-1-yl)-2-oxoethyl)quinoline-4-carboxamide] | 93 % vs. control | 117 % vs. control | 87 % vs. control | 110 % vs. control | 78 % vs. control | 105 % vs. control | 111 % vs. control | 100 % vs. control
O=C(NCC(=O)N1CCCC1)C(=O)[C@@H]1CCCN1C(=O)CNC(=O)c1ccnc2ccccc12 [Compound 5b] | 90 % vs. control | 109 % vs. control | 83 % vs. control | 106 % vs. control | 93 % vs. control | 101 % vs. control | 111 % vs. control | 86 % vs. control
COC(=O)CNC(=O)C(=O)[C@@H]1CCCN1C(=O)CNC(=O)c1ccnc2ccccc12 [Compound 3k, Methyl (S)-(2-oxo-2-(1-((quinoline-4-carbonyl)glycyl)pyrrolidin-2-yl)acetyl)glycinate] | 110 % vs. control | 123 % vs. control | 109 % vs. control | 105 % vs. control | 104 % vs. control | 94 % vs. control | 112 % vs. control | 103 % vs. control
COC(=O)[C@H](CCC(N)=O)NC(=O)CNC(=O)C(=O)[C@@H]1CCCN1C(=O)CNC(=O)c1ccnc2ccccc12 [Compound 5g, Methyl (2-oxo-2-((S)-1-((quinoline-4-carbonyl)glycyl)pyrrolidin-2-yl)acetyl)glycyl-L-glutaminate] | 114 % vs. control | 101 % vs. control | 102 % vs. control | 108 % vs. control | 109 % vs. control | 99 % vs. control | 88 % vs. control | 103 % vs. control
O=C(CNC(=O)C(=O)[C@@H]1CCCN1C(=O)CNC(=O)c1ccnc2ccccc12)NCc1ccccc1 [Compound 5d, (S)—N-(2-(2-(2-((2-(Benzylamino)-2-oxoethyl)amino)-2-oxoacetyl)pyrrolidin-1-yl)-2-oxoethyl)quinoline-4-carboxamide] | 89 % vs. control | 107 % vs. control | 82 % vs. control | 89 % vs. control | 95 % vs. control | 96 % vs. control | 112 % vs. control | 95 % vs. control

From patent US12371416B2, “Compounds for inhibition of fibroblast activation protein” (USTAV ORGANICKE CHEMIE A BIOCHEMIE AV CR, V. V. I., priority 2020, dated 2025)
